For 43 molecules, IC50 results are on record in patent publication US20150004134A1, “TREATMENT OF CANCER WITH HETEROCYCLIC INHIBITORS OF GLUTAMINASE” (Calithera Biosciences, Inc., priority 2012, published 2015).

The target in assay [1] is T1, recombinant form of Glutaminase 1 (GAC) (Homo sapiens, UniProt O94925).
T1 sequence (O94925 137-598 isoform O94925-3 limits assumed): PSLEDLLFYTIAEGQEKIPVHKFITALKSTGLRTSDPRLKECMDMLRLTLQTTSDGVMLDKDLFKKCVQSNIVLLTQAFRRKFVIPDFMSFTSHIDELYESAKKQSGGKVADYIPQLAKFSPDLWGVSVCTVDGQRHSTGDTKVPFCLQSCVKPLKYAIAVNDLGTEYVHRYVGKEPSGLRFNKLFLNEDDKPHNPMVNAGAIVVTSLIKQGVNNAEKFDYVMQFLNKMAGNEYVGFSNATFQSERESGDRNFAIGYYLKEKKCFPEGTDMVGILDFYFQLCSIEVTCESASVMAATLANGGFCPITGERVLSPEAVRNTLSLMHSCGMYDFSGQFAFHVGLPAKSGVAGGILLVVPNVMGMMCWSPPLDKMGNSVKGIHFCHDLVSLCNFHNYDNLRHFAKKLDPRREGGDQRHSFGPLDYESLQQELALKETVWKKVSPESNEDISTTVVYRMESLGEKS
Nature of the assay: Recombinant Enzyme Assay (no preincubation).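 Further: GDH-coupled GAC activity read as absorbance at 340 nm in kinetic mode over 15 min at 20 °C, slopes compared with a DMSO-only control, lower slope means inhibition.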 The format is biochemical. The settings on record: read-out: GAC Delta N2 IC50 no preinc.
Procedure: Compounds were assessed for their ability to inhibit the enzymatic activity of a recombinant form of Glutaminase 1 (GAC) using a biochemical assay that couples the production of glutamate (liberated by GAC) to glutamate dehydrogenase (GDH) and measuring the change in absorbance for the reduction of NAD^+ to NADH. […] Enzymatic reaction was started with the addition of 50 μL of enzyme solution (50 mM Tris-HCl pH 8.0, 0.2 mM EDTA, 150 mM K2HPO4, 0.1 mg/ml BSA, 1 mM DTT, 10 ppm antifoam, 4 units/ml GDH, 4 mM adenosine diphosphate, and 4 nM GAC) and read in a Molecular Devices M5 plate reader at 20° C. The plate reader was configured to read absorbance (λ=340 nm) in kinetic mode for 15 minutes. Data was recorded as milli-absorbance units per minute and slopes were compared to a control compound and a DMSO-only control on the same plate. Compounds with slopes less than the DMSO control were considered inhibitors and plate variability was assessed using the control compound.

Another assay concerns P493-6 (myc "on") cells. In words: Cell Proliferation Assay. To be noted: P493-6, 72 h. The format is cell-based. The method in brief: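 Read-out: either Cell Titer Glo or Guava Viacount flow analysis after 72 h compound treatment of myc-on P493-6 cells (10,000/well, RPMI with 10% FBS) at 37 °C. DMSO held at 0.5% final.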
Assay [2] addresses T1, recombinant form of Glutaminase 1 (GAC). In words: Recombinant Enzyme Assay - Time Dependence (60 min preincubation). The format is biochemical. The settings on record: read-out: GAC Delta N2 IC50 60 min preinc. An outline of the steps: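 Enzyme and compound preincubated 60 min at 20° C; reaction started with substrate buffer (50 mM Tris-HCl pH 8.0, 150 mM K2HPO4, 1 mM DTT, 20 mM L-glutamine, 2 mM NAD^+). NADH formation followed at 340 nm in kinetic mode for 15 min at 20° C; slopes (mAU/min) compared with DMSO and control-compound wells.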

Where [3] appears, read: read-out: Cell prolif P493 72 h IC50, P493 cells, 72 h.
The mark [4] stands for this setting: read-out: Cell prolif P493 72 h IC50, P493-6 cells, 72 h.

Each structure is given as a SMILES string. Read-outs that look alike come from different tables or passages of the source.

In the case of `O=C(Cc1ccccc1)Nc1nnc(CCSCCc2nnc(NC(=O)C(CO)c3ccccc3)s2)s1` (stereo not shown) [Compound 29], the IC50 turned out to be 560 nM in assay [1] and 4100 nM in the assay with P493-6 (myc "on") cells (setting [3]).

Take `O=C(Nc1nnc(CCCCc2nnc(NC(=O)C(CO)c3ccccc3)s2)s1)C(CO)c1ccccc1` (stereo not shown) [Compound 36, N,N′-[5,5′-(butane-1,4-diyl)-bis(1,3,4-thiadiazole-5,2-diyl)]-bis(3-hydroxy-2-phenylpropanamide)]: the IC50 in assay [1] was 220 nM; in assay [2], 40 nM; in the assay with P493-6 (myc "on") cells (setting [3]) it was 160 nM.

On to `Nc1cccc(CC(=O)Nc2nnc(CCSCCc3nnc(NC(=O)Cc4cccc(N)c4)s3)s2)c1` [Compound 99], for which the figures for the IC50 (in assay [1]; in the assay with P493-6 (myc "on") cells (setting [3])) were 2700 nM and 1000 nM, respectively.

Consider `O=C(Nc1nnc(CCSCCc2nnc(NC(=O)C3COc4ccccc43)s2)s1)C1COc2ccccc21` (stereo not shown) [Compound 133], for which the IC50 came to 510 nM in assay [1] and 150 nM in the assay with P493-6 (myc "on") cells (setting [3]).

With `COc1cccc(CC(=O)Nc2nnc(CCCCc3nnc(NC(=O)Cc4cccc(OC)c4)s3)s2)c1` [Compound 159], the values for the IC50 (in assay [1]; in the assay with P493-6 (myc "on") cells (setting [3])) were 110 nM and 50 nM, respectively.

As for `COc1ccc(CC(=O)Nc2nnc(CCCCc3nnc(NC(=O)Cc4ccc(OC)cc4)s3)s2)cc1` [Compound 163], the IC50 in assay [1] was 130 nM; with P493-6 (myc "on") cells (setting [3]), above 50000 nM.

`COc1cc(CC(=O)Nc2nnc(CCCCc3nnc(NC(=O)Cc4cc(OC)cc(OC)c4)s3)s2)cc(OC)c1` [Compound 205]: the IC50 in assay [1] came to 380 nM; with P493-6 (myc "on") cells (setting [3]), 4100 nM.

With `O=C(Cc1cccc(OCCO)c1)Nc1nnc(CCCCc2nnc(NC(=O)Cc3cccc(OCCO)c3)s2)s1` [Compound 235], the IC50 in assay [1] turned out to be 110 nM; in the assay on P493-6 (myc "on") cells (setting [3]), 210 nM.

On to `O=C(Nc1nnc(CCSCc2nnc(NC(=O)C(CO)c3ccccc3)s2)s1)C(CO)c1ccccc1` (stereo not shown) [Compound 239], for which the IC50 (in assay [1]; in the assay with P493-6 (myc "on") cells (setting [3])) was 300 nM each time.

Regarding `O=C(Cc1cccc(OCCN2CCOCC2)c1)Nc1nnc(CCCCc2nnc(NC(=O)Cc3cccc(OCCN4CCOCC4)c3)s2)s1` [Compound 241], the IC50 in assay [1] stood at 380 nM; in the assay on P493-6 (myc "on") cells (setting [3]), 870 nM.

In the case of `O=C(Nc1nnc(CCSCc2nnc(NC(=O)[C@@H](O)c3ccccc3)s2)s1)[C@@H](O)c1ccccc1` [Compound 242], the IC50 in assay [1] came to 360 nM; with P493-6 (myc "on") cells (setting [3]), 220 nM.

For the molecule `CCOC(=O)Nc1nnc(CCCCc2nnc(NC(=O)Cc3ccccc3)s2)s1` [Compound 244], the IC50 in assay [1] stood at 840 nM; with P493-6 (myc "on") cells (setting [3]) it was 1700 nM.

As for `COc1cccc(CC(=O)Nc2nnc(CCSCc3nnc(NC(=O)Cc4cccc(OC)c4)s3)s2)c1` [Compound 250], the IC50 was 120 nM in assay [1] and 140 nM with P493-6 (myc "on") cells (setting [3]).

`O=C(Cc1cccc(CN2CCNCC2)c1)Nc1nnc(CCSCc2nnc(NC(=O)Cc3cccc(CN4CCNCC4)c3)s2)s1` [Compound 276]: the IC50 in assay [1] was determined as 1500 nM; in the assay with P493-6 (myc "on") cells (setting [3]), 56000 nM.

`C=C(C(=O)Nc1nnc(CCCCc2nnc(NC(=O)C(OCC(=O)CCN3CCOCC3)c3ccccc3)s2)s1)c1ccccc1` (stereo not shown) [Compound 281]: the IC50 in assay [1] was 740 nM; in the assay with P493-6 (myc "on") cells (setting [3]), 660 nM.

As to `O=C(Cc1ccccn1)Nc1nnc(CCCCc2nnc(NC(=O)Cc3ccccn3)s2)s1` [Compound 307], the figures for the IC50 (in assay [1]; in the assay on P493-6 (myc "on") cells (setting [3])) were 6400 nM and 9300 nM, respectively.

Regarding `O=C(Cc1ccccc1)Nc1nnc(CCCCc2nnc(NC(=O)Cc3ccccn3)s2)s1` [Compound 310], the IC50 came to 83 nM in assay [1] and 120 nM in the assay with P493-6 (myc "on") cells (setting [3]).

For `O=C(O)Cc1cccc(CC(=O)Nc2nnc(CCCCc3nnc(NC(=O)Cc4cccc(CC(=O)O)c4)s3)s2)c1` [Compound 313], the IC50 in assay [1] is 270 nM; with P493-6 (myc "on") cells (setting [3]), 94000 nM.

In the case of `O=C(Cc1ccccc1)Nc1ccc(CCCCc2nnc(NC(=O)C(CO)c3ccccc3)s2)nn1` (stereo not shown) [Compound 314], the IC50 turned out to be 140 nM in assay [1] and 48 nM in the assay on P493-6 (myc "on") cells (setting [3]).

As to `CC(C)(C)OC(=O)NCc1cccc(CC(=O)Nc2nnc(CCCCc3nnc(NC(=O)Cc4cccc(CNC(=O)OC(C)(C)C)c4)s3)s2)c1` [Compound 324], the IC50 is 4600 nM in assay [1] and 100 nM with P493-6 (myc "on") cells (setting [3]).

Take `NCc1cccc(CC(=O)Nc2nnc(CCCCc3nnc(NC(=O)Cc4cccc(CN)c4)s3)s2)c1` [Compound 325]: the IC50 in assay [1] came to 660 nM; in assay [2] it was 170 nM; in the assay on P493-6 (myc "on") cells (setting [3]) it was 30 nM.

As for `Nc1cccc(CC(=O)Nc2nnc(CCCCc3nnc(NC(=O)Cc4cccc(N)c4)s3)s2)c1` [Compound 329], the IC50 in assay [1] was determined as 170 nM; with P493-6 (myc "on") cells (setting [3]), 450 nM.

Turning to `O=C(Cc1ccccc1)Nc1ccc(CCCCc2nnc(NC(=O)Cc3ccc(O)c(Cl)c3)s2)nn1` [Compound 336], the IC50 in assay [1] was 68 nM; with P493-6 (myc "on") cells (setting [3]), 52 nM.

As to `O=C(Cc1ccccc1)Nc1ccc(CCCCc2nnc(NC(=O)Cc3cccc(O)c3)s2)nn1` [Compound 337], the IC50 in assay [1] turned out to be 73 nM; in the assay on P493-6 (myc "on") cells (setting [3]), 21 nM.

As to `O=C(Cc1ccccc1)Nc1ccc(CCCCc2nnc(NC(=O)Cc3cccc(OCc4ccccc4)c3)s2)nn1` [Compound 338], the results for the IC50 (in assay [1]; with P493-6 (myc "on") cells (setting [3])) were 150 nM and 43 nM, respectively.

As for `O=C(Cc1ccccc1)Nc1ccc(CCCCc2nnc(NC(=O)[C@H](O)c3cccc(Cl)c3)s2)nn1` [Compound 340], the IC50 in assay [1] stood at 96 nM; with P493-6 (myc "on") cells (setting [3]), 38 nM.

Consider `O=C(Cc1ccccc1)Nc1ccc(CCCCc2nnc(NC(=O)C(O)c3cc(F)cc(F)c3)s2)nn1` (stereo not shown) [Compound 351], for which the IC50 turned out to be 110 nM in assay [1] and 49 nM with P493-6 (myc "on") cells (setting [3]).

As for `COc1cccc(CC(=O)Nc2nnc(CCCCc3ccc(NC(=O)Cc4ccccc4)nn3)s2)c1` [Compound 353], the IC50 in assay [1] worked out at 49 nM; in the assay with P493-6 (myc "on") cells (setting [3]), 21 nM.

As to `O=C(Cc1ccccc1)Nc1ccc(CCCCc2nnc(NC(=O)Cc3cccnc3)s2)nn1` [Compound 355], the figures for the IC50 (in assay [1]; in the assay with P493-6 (myc "on") cells (setting [3])) were 100 nM and 39 nM, respectively.

As to `COc1cccc(CC(=O)Nc2nnc(CCSCCc3nnc(NC(=O)Cc4ccccn4)s3)s2)c1` [Compound 360], the IC50 in assay [1] amounted to 280 nM; in the assay on P493-6 (myc "on") cells (setting [3]), 670 nM.

As to `O=C(Cc1ccccc1)Nc1nnc(CCCCc2ccc(NC(=O)C(O)c3ccccc3)nn2)s1` (stereo not shown) [Compound 364], the results for the IC50 (in assay [1]; in assay [2]; with P493-6 (myc "on") cells (setting [3])) were 150 nM, 30 nM and 260 nM, respectively.

On to `O=C(Cc1ccccc1)Nc1nnc(CCCCc2ccc(NC(=O)C(O)c3cccc(Cl)c3)nn2)s1` (stereo not shown) [Compound 365], for which the IC50 in assay [1] is 92 nM; in assay [2], 9 nM; in the assay with P493-6 (myc "on") cells (setting [3]), 89 nM.

Turning to `COc1cccc(CC(=O)Nc2ccc(CCCCc3nnc(NC(=O)Cc4ccccc4)s3)nn2)c1` [Compound 366], the values for the IC50 (in assay [1]; in the assay on P493-6 (myc "on") cells (setting [3])) were 74 nM and 24 nM, respectively.

For `NCc1cccc(CC(=O)Nc2ccc(CCCCc3nnc(NC(=O)Cc4ccccc4)s3)nn2)c1` [Compound 368], the IC50 is 110 nM in assay [1], 9 nM in assay [2] and 17 nM in the assay with P493-6 (myc "on") cells (setting [3]).

Consider `O=C(Cc1ccccc1)Nc1ccc(CCCCc2nnc(NC(=O)Cc3cccc(-n4ccnc4)c3)s2)nn1` [Compound 379], for which the values for the IC50 (in assay [1]; in the assay on P493-6 (myc "on") cells (setting [3])) were 97 nM and 38 nM, respectively.

As to `Cc1nccn1Cc1cccc(CC(=O)Nc2nnc(CCCCc3ccc(NC(=O)Cc4ccccc4)nn3)s2)c1` [Compound 380], the IC50 is 120 nM in assay [1] and 19 nM in the assay on P493-6 (myc "on") cells (setting [3]).

As to `O=C(Cc1ccccc1)Nc1ccc(CCCCc2nnc(NC(=O)Cc3cccc(OCCN4CCOCC4)c3)s2)nn1` [Compound 381], the IC50 in assay [1] came to 160 nM; in the assay with P493-6 (myc "on") cells (setting [3]), 18 nM.

In the case of `O=C(Cc1ccccn1)Nc1ccc(CCCCc2nnc(NC(=O)Cc3ccccc3)s2)nn1` [Compound 383], the results for the IC50 (in assay [1]; in the assay with P493-6 (myc "on") cells (setting [3])) were 86 nM and 22 nM, respectively.

With `Nc1ccc(CCCCc2nnc(NC(=O)Cc3cccc(OCc4ccccc4)c3)s2)nn1` [Compound 385], the IC50 was found to be 260 nM in assay [1] and 720 nM with P493-6 (myc "on") cells (setting [3]).

Turning to `O=C(Cc1ccccc1)Nc1ccc(CCCCc2nnc(NC(=O)OCc3ccccc3)s2)nn1` [Compound 386], the IC50 stood at 85 nM in assay [1] and 150 nM in the assay with P493-6 (myc "on") cells (setting [3]).

In the case of `O=C(Cc1cccc2cnccc12)Nc1nnc(CCCCc2nnc(NC(=O)Cc3cccc4cnccc34)s2)s1` [Compound 639], the IC50 in assay [1] was found to be 170 nM; in the assay on P493-6 (myc "on") cells (setting [4]) it was 23000 nM.

As to `O=C(Cc1cccc2[nH]ncc12)Nc1nnc(CCCCc2nnc(NC(=O)Cc3cccc4[nH]ncc34)s2)s1` [Compound 640], the IC50 in assay [1] worked out at 120 nM; with P493-6 (myc "on") cells (setting [4]) it was 70 nM.

On to `O=C(Cc1cccc2ncccc12)Nc1nnc(CCCCc2nnc(NC(=O)Cc3cccc4ncccc34)s2)s1` [Compound 641], for which the IC50 in assay [1] was 140 nM; in the assay on P493-6 (myc "on") cells (setting [4]), 500 nM.
